Data taken from patent US9771430B2, “Method of treating a metabolic disorder induced by obesity in a subject in need thereof by administering MK2/3 inhibitors” (THE TRUSTEES OF COLUMBIA UNIVERSITY IN THE CITY OF NEW YORK, priority 2011, dated 2017).

What was measured:
CaMKII [1] = type: cell-based, mouse
Procedure: FIG. 1A. CaMKII enzyme activity was assayed in triplicate wells of primary mouse HCs stimulated with 100 nM glucagon (Gluc) or vehicle control (Veh) for the indicated times (*P<0.05 and **P<0.01 vs. Veh; mean±S.E.M.). FIGS. 1B-1J. Extracts of HCs or liver were probed for phospho-CaMKII, total CaMKII, and β-actin by immunoblot assay. FIG. 1B. HCs were incubated with […] glucagon for the indicated times; FIG. 1C. Glucagon was added to HCs that were pre-treated for 1 h with vehicle control (Veh) or 5 μM BAPTA-AM; FIG. 1D. Glucagon was added to HCs that were pre-treated with 0.5 μM xestospongin (XesC) or to HCs from Ip3r1fl/fl mice transduced with adeno-LacZ control or adeno-Cre (bar graph=Ip3r1 mRNA levels); FIG. 1E. Glucagon was added to HCs that were pre-treated for 1 h with vehicle control (Veh) or 10 μM H89. FIG. 1F. […] FIGS. 1G-1J. In vivo experiments. In FIG. 1G, mice were treated for 30 min with 200 μg kg−1 body weight of glucagon i.p., and in FIG. 1H, mice were pre-treated with 10 pmol g−1 xestospongin C or vehicle control i.p. 4 days prior to glucagon treatment. In FIGS. 1I-1J, mice were fed ad libitum or fasted for 12 h, or fasted for 12 h and then re-fed for 4 h.
Total RNA was extracted from hepatocytes using the RNeasy kit (Qiagen). cDNA was synthesized from 2 μg total RNA using oligo (dT) and Superscript II (Invitrogen). Real-time qPCR analysis and western blotting were performed as previously described (Timmins et al., 2009). Nuclear extraction from liver was performed using the Nuclear Extraction Kit from Panomics according to the manufacturer's instructions.
Immunoblot and RT-qPCR assays were performed as previously described (Timmins et al., 2009). Total RNA was extracted from HCs using the RNeasy kit (Qiagen). cDNA was synthesized from 2 μg total RNA using oligo (dT) and Superscript II (Invitrogen). Nuclear extraction from liver was performed using the Nuclear Extraction Kit from Panomics according to the manufacturer's instructions.

CRTC2 = CRTC2 dephosphorylation and nuclear translocation in primary hepatocytes; type: cell-based, mouse; conditions: inhibitor pre-treatment 1 h, glucagon 100 nM
Procedure: (§1) HEK293T (ATCC) cells were cultured in DMEM containing 10% FBS (HyClone), […] penicillin-streptomycin. Mouse primary hepatocytes were isolated and cultured as previously described (18). Cellular fractionation studies were conducted as previously reported (18). For reporter studies, Ad-CRE-luc infected hepatocytes (1 pfu per cell) were exposed to glucagon (Gcg, 100 nM) for 2˜4 h. For cyclosporine A (CsA, 10 μM) or okadaic acid (OA, 100 nM) or cell permeable calcineurin autoinhibitory peptide (10 μM) or CN585 (100 μM) or Calyculin A (10 nM) or Xestospongin C (Xc, 2 μM) or H89 (30 μM) or BAPTA (50 μM) inhibition, hepatocytes were pre-treated with the inhibitors for one hour. Luciferase activities were normalized to β-galactosidase activity from adenoviral-encoded RSV β-gal. Calcineurin activity (test kit from Enzo Life Sciences) and cellular cAMP levels (test kit from Cayman Chemical Company) were measured according to manufacturer's instructions.
(§2) Immunoblot, immunoprecipitation, and immunostaining assays were performed as described (18). CRTC2, pCREB (Ser133), CREB, pAKT (Thr308), AKT, tubulin, HA, and FLAG antibodies were previously described (18). The antibodies anti-InsP3R1 (A302-158A) and InsP3R3 (A302-160A) were purchased from Bethyl Laboratories, anti-InsP3R2 (ab77838) from Abcam, anti-Calcineurin (610260) from BD Biosciences, anti-GRP78 (ADI-SPA-826-F) from Enzo Life Sciences, anti-phospho-PKA substrate (RRXS/T, 9624), anti-phospho-AKT substrate (RXXS/T, 9614) and CRTC2 (pS171, 2892) from Cell Signaling. CRTC2 (pS275) antibody was employed as described (19).

CREB = test: PKA-mediated phosphorylation of CREB in hepatocytes; type: cell-based, mouse
Procedure: as §2

[2] = tested on: CRE-luciferase (luc) reporter; test: CRE-luciferase reporter activity in primary hepatocytes; type: cell-based, mouse; conditions: response to glucagon
Procedure: as §1

G6pc and Pck1 mRNA = G6pc and Pck1 mRNA (RT-qPCR) in primary mouse hepatocytes; type: cell-based
Procedure: FIG. 32A-E. Related to FIG. 26—p38. FIG. 32A Mice were fed ad libitum or fasted for 12 h. Liver phospho-p38, total p38, p-MK2, total MK-2, and β-actin were assayed by immunoblot. FIG. 32B WT HCs were serum-depleted overnight and then incubated for 5 h with 100 nm glucagon in serum-free media with or without SB202190; or glucagon was added to HCs from P38a^fl/fl mice treated with adeno-LacZ (control) or adeno-Cre. RNA was assayed for G6pc and Pck1 mRNA (*P<0.05; mean±S.E.M.). FIG. 32C HCs from fasting WT and Camk2g^−/− mice were assayed for p-p38, total p38, and β-actin. FIG. 32D WT mice were injected i.p. with 12.5 mg kg^−1 body weight of p38 inhibitor (SB202190) or vehicle control. 12 h later, the mice were injected with an additional dose of SB202190 and fasted overnight. The livers were assayed for nuclear FoxO1, nucleophosmin, p-MK2, total MK-2, and β-actin. The correlation between nuclear FoxO1 and p-MK2 band intensities is shown in the graph. FIG. 32E Adeno-GFP-FoxO1-transduced HCs were serum-depleted overnight, and then incubated for 5 h in serum-free media with SB202190 or vehicle (Veh) control. FoxO1 localization was assessed by indirect immunofluorescence (Bar, 10 μm; *P<0.05; mean±S.E.M.).
FIGS. 53A-B. MK-2 regulates hepatic FoxO1 subcellular localization and hepatic G6Pc and Pck1. FIG. 53A. Adeno-GFP-FoxO1-transduced HCs were serum-depleted overnight, and then incubated for 30 min in serum-free media with 2 uM MK-2 inhibitor or vehicle (Veh) control. FoxO1 localization was assessed by indirect immunofluorescence (Bar, […]; *P<0.005; mean±S.E.M.). FIG. 53B WT HCs were serum-depleted overnight and then incubated for 5 h with 100 nm glucagon in serum-free media with or without MK-2 inhibitor. RNA was assayed for G6pc and Pck1 mRNA (*P<0.005; mean±S.E.M.). MK-2 Inhibitor is from Calbiochem (cat#475864): 2-(2-Quinolin-3-ylpyridin-4-yl)-1,5,6,7-tetrahydro-4H-pyrrolo-[3,2-c]pyridin-4-one.
FIG. 69. MK-2 inhibitor suppresses forskolin-induced Pck1 and G6Pc induction in primary hepatocytes. Primary hepatocytes from WT mice were serum-depleted overnight and then pre-treated with 300 nM MK-2 inhibitor (compound 28) or vehicle for 1 h. Cells were then treated with 2 μM forskolin in serum-free media with or without the inhibitor for 4 h. RNA was assayed for G6pc and Pck1 mRNA by RT-qPCR. *, P<0.0001.
Primary mouse HCs were isolated from 8- to 12-week-old mice as described previously (Matsumoto et al., 2002). For most experiments, the HCs were serum-depleted overnight by incubation in medium containing 0.5% fetal calf serum and were then incubated for 5 h in serum-free media, with individual treatments noted in the figure legends. HCs were transduced with adenoviral constructs 12 h after plating, and experiments were conducted 24 h after transduction. Transfections with WT, 7A- and 9A-Foxo1 were carried out using jetPEI™-hepatocyte DNA transfection reagent (Polyplus-transfection, Inc.) according to manufacturer's instructions.
Immunoblot and RT-qPCR assays were performed as previously described (Timmins et al., 2009). Total RNA was extracted from HCs using the RNeasy kit (Qiagen). cDNA was synthesized from 2 μg total RNA using oligo (dT) and Superscript II (Invitrogen). Nuclear extraction from liver was performed using the Nuclear Extraction Kit from Panomics according to the manufacturer's instructions. […] Whether their origin is alternative splicing or post-translational modification remains to be determined.

FoxO1 [3] = test: FoxO1 subcellular localization in primary mouse hepatocytes; type: cell-based; conditions: HCs treated with glucagon
Procedure: FIG. 24A HCs from WT and Camk2g^−/− mice were transduced with an adenovirus expressing murine GFP-FoxO1 at an MOI of 2. Cells were serum-depleted overnight and then incubated for 5 h in serum-free media. FoxO1 subcellular localization was assessed by indirect immunofluorescence. Bar, 10 μm. Data are quantified in the right panel. (^#P<0.0005; mean±S.E.M.). FIG. 24B HCs were transduced with adenoviral vectors expressing LacZ, CA-CaMKII, or KD-CaMKII at an MOI of 20 and then transduced 4 h later with adeno-GFP-FoxO1, followed by fluorescence microscopy and quantification as in FIG. 24A (^#P<0.005 vs. LacZ; mean±S.E.M.). Bar, 5 μm. FIG. 24C HCs were transduced with adeno-LacZ or CA-CaMKII and then adeno-GFP-FoxO1 as in FIG. 24B. After incubation in serum-depleted medium o.n. and then serum-free medium for 5 h, the cells were treated with 100 nM insulin for the indicated times. FoxO1 subcellular localization was quantified as in FIG. 24B (*P<0.005 vs. LacZ in each group; mean±S.E.M.).
Primary hepatocytes from WT mice were transduced with adeno-LacZ (LacZ) or adeno-DN-MK2 (DN-MK2) at an MOI of 1. […]

FoxO1 [4] = test: Nuclear FoxO1 in mouse liver (immunoblot of nuclear extracts); type: in vivo; conditions: fasting mice, 12.5 mg kg−1 i.p., two doses
Procedure: FIGS. 24A-D. CaMKII regulates hepatic FoxO1 subcellular localization. FIG. 24A HCs from WT and Camk2g^−/− mice were transduced with an adenovirus expressing murine GFP-FoxO1 at an MOI of 2. Cells were serum-depleted overnight and then incubated for 5 h in serum-free media. FoxO1 subcellular localization was assessed by indirect immunofluorescence. Bar, 10 μm. Data are quantified in the right panel. (^#P<0.0005; mean±S.E.M.). […] Bar, 5 μm. FIG. 24C HCs were transduced with adeno-LacZ or CA-CaMKII and then adeno-GFP-FoxO1 as in FIG. 24B. After incubation in serum-depleted medium o.n. and then serum-free medium for 5 h, the cells were treated with 100 nM insulin for the indicated times. FoxO1 subcellular localization was quantified as in FIG. 24B (*P<0.005 vs. LacZ in each group; mean±S.E.M.).
FIG. 32A-E. Related to FIG. 26—p38. FIG. 32A Mice were fed ad libitum or fasted for 12 h. Liver phospho-p38, total p38, p-MK2, total MK-2, and β-actin were assayed by immunoblot. […] FoxO1 localization was assessed by indirect immunofluorescence (Bar, 10 μm; *P<0.05; mean±S.E.M.).
Immunoblot and RT-qPCR assays were performed as previously described (Timmins et al., 2009). […] Whether their origin is alternative splicing or post-translational modification remains to be determined.

JNK = conditions: at 100 μM; cited from earlier work
p42 MAP kinase = p42 MAP kinase (Homo sapiens, UniProt P28482); conditions: at 100 μM; cited from earlier work
p42 MAP kinase, sequence (P28482 whole entry): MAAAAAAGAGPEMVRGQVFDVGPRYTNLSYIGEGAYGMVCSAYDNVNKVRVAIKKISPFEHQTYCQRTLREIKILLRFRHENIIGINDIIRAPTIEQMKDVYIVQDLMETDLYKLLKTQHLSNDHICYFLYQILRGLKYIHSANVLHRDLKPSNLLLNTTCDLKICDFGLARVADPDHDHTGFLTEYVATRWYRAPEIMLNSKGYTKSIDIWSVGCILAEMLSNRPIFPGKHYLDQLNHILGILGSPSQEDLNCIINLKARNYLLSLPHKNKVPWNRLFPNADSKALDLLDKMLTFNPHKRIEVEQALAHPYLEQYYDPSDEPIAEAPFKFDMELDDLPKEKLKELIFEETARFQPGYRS

CaMKII [5] = conditions: WT Mφs, 4 h, 5 μM
Procedure: Immunoblots of pThr287-CaMKII in FIG. 15A WT, Insr−/−, and ob/obMφs±FC loading or oxLDL and FIG. 15B WT Mφs±4 h treatment with 5 μM U0126 ERK inhibitor.

cytosolic free calcium = test: Calcium mobilization in primary hepatocytes (Fura-2 imaging); type: cell-based, mouse; conditions: cells expressing wild-type InsP3R1
Procedure: Mouse primary hepatocytes were plated on glass coverslips and loaded with 5 μM Fura-2 acetoxymethyl ester (Molecular Probes) in the presence of 0.025% (w/v) pluronic F127 (Sigma-Aldrich) in Media 199 (Mediatech) for 30 minutes. […] The ratio of fluorescence intensity at the two excitation wavelengths was calculated after subtracting background fluorescence. [Ca2+]I (cytosolic free calcium concentration) was calculated using a Fura-2 calcium imaging calibration kit (Invitrogen). Images were collected and analyzed using the MetaFluor software package (Universal Imaging Corp.). Graphs represent average responses from groups of 30-40 individual cells from representative single experiments. Bar graphs represent average responses (fold over average baseline) from 150-200 cells per condition. All experiments were repeated at least three times with similar results.

calcineurin = test: Calcineurin activity in primary hepatocytes; type: cell-based, mouse; conditions: cells expressing wild-type InsP3R1
Procedure: as §1

[6] = tested on: InsP3R1, InsP3R2 and InsP3R3; test: InsP3R phosphorylation in hepatocytes (phospho-substrate antiserum immunoblot); type: cell-based, mouse; conditions: phospho-AKT substrate antiserum

## CC(=O)OCOC(=O)CN(CC(=O)OCOC(C)=O)c1ccccc1OCCOc1ccccc1N(CC(=O)OCOC(C)=O)CC(=O)OCOC(C)=O [BAPTA-AM, 1,2-bis[2-aminophenoxy]ethane-N,N,N′,N′-tetraacetic acid tetrakis[acetoxymethyl ester]]
CaMKII [1]; HCs pre-treated with inhibitor, then glucagon
  glucagon-induced CaMKII phosphorylation: markedly decreased
CRTC2
  glucagon-induced dephosphorylation (and nuclear translocation) of CRTC2: disrupted
CREB
  PKA-mediated phosphorylation of CREB in response to glucagon: did not block
[2]
  CRE-luciferase (luc) reporter activity / activation: disrupted

## O=C1NCCc2[nH]c(-c3ccnc(-c4cnc5ccccc5c4)c3)cc21 [MK2 inhibitor, 2-(2-Quinolin-3-ylpyridin-4-yl)-1,5,6,7-tetrahydro-4H-pyrrolo-[3,2-c]pyridin-4-one]
G6pc and Pck1 mRNA; 2 uM MK-2 inhibitor, glucagon 100 nm 5 h (FIG. 53)
  nuclear FoxO1 and induction of genes involved in hepatic glucose production: importance of MK2 in both nuclear FoxO1 and in induction of genes

## Oc1ccc(-c2nc(-c3ccncc3)c(-c3ccc(F)cc3)[nH]2)cc1 [SB202190]
FoxO1 [3]
  nuclear GFP-FoxO1: decreased
G6pc and Pck1 mRNA; glucagon-stimulated HC
  expression of G6pc and Pck1: blocked
FoxO1 [4]
  nuclear FoxO1 in liver as a function of p38 inhibition (p-MK2): clear decrease

## C[S+]([O-])c1ccc(-c2nc(-c3ccncc3)c(-c3ccc(F)cc3)[nH]2)cc1 (stereo not drawn) [SB203580]
JNK
  inhibition of JNK: does not significantly inhibit
p42 MAP kinase
  inhibition of p42 MAP kinase: does not significantly inhibit

## N#CC(=C(/N)Sc1ccccc1N)/C(C#N)=C(\N)Sc1ccccc1N [U0126]
CaMKII [5]
  p-CaMKII: increase

## C1CNC1 [azetidine]
CaMKII [1]; ER stress activation
  p-CaMKIIγ in HCs: increased

## C=C[C@@]1(C)CC(=O)[C@]2(O)[C@@]3(C)[C@@H](O)CCC(C)(C)[C@@H]3[C@H](O)[C@H](OC(C)=O)[C@@]2(C)O1 [forskolin]
G6pc and Pck1 mRNA; forskolin 10 μM
  G6pc mRNA, untreated WT HCs lower than forskolin-treated WT HCs: ~165 fold
  Pck1 mRNA, untreated WT HCs lower than forskolin-treated WT HCs: ~2500 fold

## C=C1[C@@H](O)[C@@H]2O[C@]3(CC[C@H](/C=C/[C@@H](C)[C@@H]4CC(C)=C[C@@]5(O[C@H](C[C@@](C)(O)C(=O)O)CC[C@H]5O)O4)O3)CC[C@H]2O[C@@H]1[C@@H](O)C[C@H](C)[C@H]1O[C@@]2(CCCCO2)CC[C@H]1C [okadaic acid]
CRTC2
  glucagon-induced dephosphorylation (and nuclear translocation) of CRTC2: did not

## insulin: hormone
Cytosolic free calcium
  glucagon-dependent increases in calcium mobilization: reduced
calcineurin
  glucagon-dependent increases in calcineurin activation: reduced
[6]
  InsP3R phosphorylation: increased
